From ChEMBL document CHEMBL1201862, “PubChem BioAssay data set” (2004)
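These data come from cells grown in 96-well plates and exposed to compound for 48 hours at five concentrations. GI50 = concentration required for 50% inhibition of growth.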 Activity calls are given as the source filed them. Rule as the data show it: active = GI50 up to about 1.1 µM and inactive = higher.

How the values were obtained:
Test in all cases: inhibition of tumour cell growth, NCI panel, 48 h
NCI-H522 = test system: NCI-H522
HL-60 = test system: HL-60
SN12C = test system: SN12C
UO-31 = test system: UO-31
SK-OV-3 = test system: SK-OV-3
NCI-H23 = test system: NCI-H23
A549 = test system: A549
UACC-62 = test system: UACC-62
MDA-N = test system: MDA-N
K562 = test system: K562
TK-10 = test system: TK-10
BT-549 = test system: BT-549
SNB-19 = test system: SNB-19
SF-268 = test system: SF-268
KM12 = test system: KM12
OVCAR-4 = test system: OVCAR-4
HOP-92 = test system: HOP-92
U-251 = test system: U-251
MCF7 = test system: MCF7
HCC 2998 = test system: HCC 2998
MOLT-4 = test system: MOLT-4
SF-539 = test system: SF-539
UACC-257 = test system: UACC-257
SK-MEL-28 = test system: SK-MEL-28
NCI/ADR-RES = test system: NCI/ADR-RES
Malme-3M = test system: Malme-3M
CAKI-1 = test system: CAKI-1
RXF 393 = test system: RXF 393
OVCAR-5 = test system: OVCAR-5
IGROV-1 = test system: IGROV-1
DU-145 = test system: DU-145
NCI-H226 = test system: NCI-H226
RPMI-8226 = test system: RPMI-8226
T47D = test system: T47D
SK-MEL-5 = test system: SK-MEL-5
SF-295 = test system: SF-295
HCT-15 = test system: HCT-15
786-0 = test system: 786-0
SW-620 = test system: SW-620
OVCAR-3 = test system: OVCAR-3
Hs-578T = test system: Hs-578T
MDA-MB-231 = test system: MDA-MB-231
OVCAR-8 = test system: OVCAR-8
SNB-75 = test system: SNB-75
LOX IMVI = test system: LOX IMVI
A498 = test system: A498
EKVX = test system: EKVX
MDA-MB-435 = test system: MDA-MB-435
ACHN = test system: ACHN
NCI-H460 = test system: NCI-H460
HT-29 = test system: HT-29
SK-MEL-2 = test system: SK-MEL-2
M14 = test system: M14
COLO 205 = test system: COLO 205
HOP-62 = test system: HOP-62
HCT-116 = test system: HCT-116
PC-3 = test system: PC-3
CCRF-CEM = test system: CCRF-CEM

Measured: GI50

C(=N\Nc1nnc2c(n1)[nH]c1ccccc12)/c1cccnc1
inactive: NCI-H522 > 100 µM | HL-60 > 100 µM | SN12C > 100 µM | UO-31 > 100 µM | SK-OV-3 > 100 µM | NCI-H23 > 100 µM | A549 > 100 µM | UACC-62 > 100 µM | MDA-N > 100 µM | K562 > 100 µM | TK-10 > 100 µM | BT-549 > 100 µM | SNB-19 > 100 µM | SF-268 > 100 µM | KM12 3.69 µM | OVCAR-4 > 100 µM | HOP-92 > 100 µM | U-251 > 100 µM | MCF7 > 100 µM | HCC 2998 > 100 µM | MOLT-4 > 100 µM | SF-539 > 100 µM | UACC-257 > 100 µM | SK-MEL-28 > 100 µM | NCI/ADR-RES > 100 µM | Malme-3M 57.8 µM | CAKI-1 > 100 µM | RXF 393 > 100 µM | OVCAR-5 > 100 µM | IGROV-1 > 100 µM | DU-145 > 100 µM | NCI-H226 > 100 µM | RPMI-8226 > 100 µM | T47D > 100 µM | SK-MEL-5 > 100 µM | SF-295 > 100 µM | 786-0 > 100 µM | SW-620 > 100 µM | OVCAR-3 > 100 µM | Hs-578T > 100 µM | MDA-MB-231 > 100 µM | OVCAR-8 > 100 µM | SNB-75 > 100 µM | LOX IMVI > 100 µM | A498 > 100 µM | EKVX > 100 µM | MDA-MB-435 > 100 µM | ACHN > 100 µM | NCI-H460 > 100 µM | HT-29 > 100 µM | SK-MEL-2 > 100 µM | M14 5.07 µM | COLO 205 > 100 µM | HOP-62 > 100 µM | HCT-116 > 100 µM | PC-3 > 100 µM
> 100 µM: HCT-15

O=C1NC(c2ccccc2)N=C2Oc3ccccc3C=C12 (stereo not given)
0.153 µM: HCT-15
active: NCI-H522 0.622 µM | HL-60 0.212 µM | SK-OV-3 0.0424 µM | NCI-H23 0.151 µM | UACC-62 0.127 µM | CCRF-CEM 0.562 µM | MDA-N 0.0738 µM | MCF7 0.359 µM | HCC 2998 0.0277 µM | UACC-257 0.065 µM | NCI/ADR-RES 0.533 µM | Malme-3M 0.122 µM | CAKI-1 0.0255 µM | RXF 393 0.603 µM | OVCAR-5 1.04 µM | IGROV-1 0.535 µM | DU-145 0.231 µM | NCI-H226 0.579 µM | SK-MEL-5 0.185 µM | SF-295 0.444 µM | 786-0 0.281 µM | SW-620 0.621 µM | OVCAR-3 0.0897 µM | Hs-578T 0.521 µM | MDA-MB-231 0.569 µM | SNB-75 0.547 µM | EKVX 0.181 µM | MDA-MB-435 < 0.0265 µM | NCI-H460 0.565 µM | M14 0.194 µM | COLO 205 0.0731 µM | HOP-62 0.543 µM | HCT-116 0.263 µM | PC-3 0.0753 µM
inactive: SN12C 3.27 µM | UO-31 8.22 µM | A549 1.73 µM | K562 1.28 µM | TK-10 > 63.1 µM | BT-549 32.6 µM | SNB-19 4.61 µM | SF-268 5.98 µM | KM12 2.62 µM | OVCAR-4 > 100 µM | HOP-92 47.2 µM | U-251 4.21 µM | MOLT-4 1.69 µM | SF-539 2.6 µM | SK-MEL-28 38.7 µM | RPMI-8226 19.3 µM | T47D > 100 µM | OVCAR-8 3.47 µM | LOX IMVI 5.12 µM | A498 1.27 µM | ACHN 2.87 µM | HT-29 1.68 µM | SK-MEL-2 1.26 µM
